In patent publication US9682995B2, “Amino-substituted isothiazoles” (BAYER PHARMA AKTIENGESELLSCHAFT, priority 2013, dated 2017) one finds IC50 data, which are given here for 19 compounds.

pIC50: −log10 of the molar value.

What all share (assay type): cell-based
The test system of one experiment is NCI-H460. The experiment is described as follows: Proliferation assay (crystal violet), NCI-H460. The conditions noted are these: Homo sapiens, 96 h; NCI-H460, 4 days; read-out: Inhibition of proliferation IC50 NCI-H460. The procedure:
(§1) Cultivated tumor cells (cells were ordered from ATCC, except HeLa-MaTu and HeLa-MaTu-ADR, which were ordered from EPO-GmbH, Berlin) were plated at a density of 1000 to 5000 cells/well, depending on the growth rate of the respective cell line, in a 96-well multititer plate in 200 μL of their respective growth medium supplemented 10% fetal calf serum. After 24 hours, the cells of one plate (zero-point plate) were stained with crystal violet (see below), while the medium of the other plates was replaced by fresh culture medium (200 μl), to which the test substances were added in various concentrations (0 μM, as well as in the range of 0.001-10 μM; the final concentration of the solvent dimethyl sulfoxide was 0.5%). The cells were incubated for 4 days in the presence of test substances. Cell proliferation was determined by staining the cells with crystal violet: the cells were fixed by adding 20 μl/measuring point of an 11% glutaric aldehyde solution for 15 minutes at room temperature. After three washing cycles of the fixed cells with water, the plates were dried at room temperature. The cells were stained by adding 100 μl/measuring point of a 0.1% crystal violet solution (pH 3.0). After three washing cycles of the stained cells with water, the plates were dried at room temperature. The dye was dissolved by adding 100 μl/measuring point of a 10% acetic acid solution. Absorption was determined by photometry at a wavelength of 595 nm. The change of cell number, in percent, was calculated by normalization of the measured values to the absorption values of the zero-point plate (=0%) and the absorption of the untreated (0 μm) cells (=100%). The IC50 values were determined by means of a 4 parameter fit.

In another experiment the test system is HeLa-MaTu-ADR. The experiment is described as follows: Proliferation assay (crystal violet), HeLa-MaTu-ADR. As to conditions: 96 h, 4 days, read-out: Inhibition of proliferation IC50 HeLa-MaTu-ADR. The procedure: as §1
The subject of the next experiment is DU145. Nature of the experiment: Proliferation assay (crystal violet), DU145. The conditions noted are these: Homo sapiens, DU-145, 96 h; DU145, 4 days; read-out: Inhibition of proliferation IC50 DU145. The protocol:
as §1

Another experiment deals with Caco2. The experiment is described as follows: Proliferation assay (crystal violet), Caco2. The conditions noted are these: Homo sapiens, Caco-2, 96 h; Caco2, 4 days; read-out: Inhibition of proliferation IC50 Caco2. The procedure:
as §1

For the next experiment, the system named is B16F10. The experiment is described as follows: Proliferation assay (crystal violet), B16F10. The conditions noted are these: Mus musculus, B16-F10, 96 h; B16F10, 4 days; read-out: Inhibition of proliferation IC50 B16F10. The protocol: as §1

Take `CCc1ccccc1NC(=O)c1c(C)nsc1Nc1cc(C#N)ccn1` [Example 4, 5-[(4-Cyanopyridin-2-yl)amino]-N-(2-ethylphenyl)-3-methyl-1,2-thiazole-4-carboxamide]: the pIC50 with NCI-H460 is 5.70; in the experiment with HeLa-MaTu-ADR, 5.74; in the experiment on DU145, 5.16; with Caco2, 5.62; in the experiment on B16F10, 5.57.
For `Cc1nsc(Nc2cnc3cc(C(F)(F)F)ccc3n2)c1C(=O)Nc1ccc(F)c(F)c1` [Example 60, N-(3,4-Difluorophenyl)-3-methyl-5-{[6-(trifluoromethyl)quinoxalin-2-yl]amino}-1,2-thiazole-4-carboxamide], the pIC50 was 6.64 in the experiment on NCI-H460; 6.62 in the experiment on HeLa-MaTu-ADR; 6.37 in the experiment with DU145; 6.66 with Caco2; 6.60 in the experiment on B16F10.
Turning to `Cc1nsc(Nc2ccc(C#N)cn2)c1C(=O)Nc1ccc(Cl)c(Cl)c1` [Example 62, 5-[(5-Cyanopyridin-2-yl)amino]-N-(3,4-dichlorophenyl)-3-methyl-1,2-thiazole-4-carboxamide], the pIC50 in the experiment with NCI-H460 is 6.85; with DU145, 6.54; with Caco2, 6.72; with B16F10 it was 6.85.
Consider `Cc1nsc(Nc2cncc(-n3cccn3)n2)c1C(=O)Nc1ccc(F)c(F)c1` [Example 64, N-(3,4-Difluorophenyl)-3-methyl-5-{[6-(1H-pyrazol-1-yl)pyrazin-2-yl]amino}-1,2-thiazole-4-carboxamide], for which the pIC50 with NCI-H460 was 6.59; in the experiment with HeLa-MaTu-ADR, 6.57; with DU145, 6.33; with Caco2, 6.14; with B16F10 it was 6.33.
Consider `Cc1nsc(Nc2cncc(-n3cccn3)n2)c1C(=O)Nc1ccc(Cl)c(F)c1` [Example 67, N-(4-Chloro-3-fluorophenyl)-3-methyl-5-{[6-(1H-pyrazol-1-yl)pyrazin-2-yl]amino}-1,2-thiazole-4-carboxamide], for which the pIC50 in the experiment with NCI-H460 was 6.68; with HeLa-MaTu-ADR, 6.74; with DU145, 6.49; with Caco2 it was 6.68; in the experiment with B16F10, 6.80.
For `Cc1nsc(Nc2cnc3cc(C(F)(F)F)ccc3n2)c1C(=O)Nc1ccc(Cl)c(F)c1` [Example 68, N-(4-Chloro-3-fluorophenyl)-3-methyl-5-{[6-(trifluoromethyl)quinoxalin-2-yl]amino}-1,2-thiazole-4-carboxamide], the pIC50 in the experiment with NCI-H460 is 6.46; in the experiment on HeLa-MaTu-ADR, 6.49; with DU145 it was 6.24; in the experiment on Caco2 it was 6.62; in the experiment with B16F10, 6.48.
For `Cc1nsc(Nc2cncc(Cl)n2)c1C(=O)Nc1ccc(F)c(F)c1` [Example 71, 5-[(6-Chloropyrazin-2-yl)amino]-N-(3,4-difluorophenyl)-3-methyl-1,2-thiazole-4-carboxamide], in that order: 6.74, 6.64, 6.37, 6.62 and 6.66.
For `CCNC(=O)c1cncc(Nc2snc(C)c2C(=O)Nc2ccc(F)c(F)c2)n1` [Example 73, 6-({4-[(3,4-Difluorophenyl)carbamoyl]-3-methyl-1,2-thiazol-5-yl}amino)-N-ethylpyrazine-2-carboxamide], in that order: 6.21, 7.00, 6.29, 6.49 and 6.41.
On to `Cc1nsc(Nc2cnc(Cl)cn2)c1C(=O)Nc1ccc(F)c(F)c1` [Example 74, 5-[(5-Chloropyrazin-2-yl)amino]-N-(3,4-difluorophenyl)-3-methyl-1,2-thiazole-4-carboxamide], for which the pIC50 is 6.92 with NCI-H460; 6.89 with HeLa-MaTu-ADR; 6.72 in the experiment with DU145; 6.80 in the experiment with Caco2; 6.77 in the experiment on B16F10.
In the same order, the values of `CNC(=O)c1cnc(Nc2snc(C)c2C(=O)Nc2ccc(F)c(F)c2)cn1` [Example 75, 5-({4-[(3,4-Difluorophenyl)carbamoyl]-3-methyl-1,2-thiazol-5-yl}amino)-N-methylpyrazine-2-carboxamide] are 5.54, 6.28, 5.54, 5.89 and 5.52.
For `Cc1nsc(Nc2cnc(Br)cn2)c1C(=O)Nc1ccc(F)c(F)c1` [Example 77, 5-[(5-Bromopyrazin-2-yl)amino]-N-(3,4-difluorophenyl)-3-methyl-1,2-thiazole-4-carboxamide], in that order: 6.74, 7.03, 6.55, 6.74 and 6.66.
For `CCNc1cncc(Nc2snc(C)c2C(=O)Nc2ccc(F)c(F)c2)n1` [Example 78, N-(3,4-Difluorophenyl)-5-{[6-(ethylamino)pyrazin-2-yl]amino}-3-methyl-1,2-thiazole-4-carboxamide], in that order: 5.52, 5.96, 5.52, 5.82 and 5.70.
With `CCc1cnc(Nc2snc(C)c2C(=O)Nc2ccc(F)c(F)c2)cn1` [Example 79, N-(3,4-Difluorophenyl)-5-[(5-ethylpyrazin-2-yl)amino]-3-methyl-1,2-thiazole-4-carboxamide], the pIC50 in the experiment on NCI-H460 is 6.47; with HeLa-MaTu-ADR it was 6.46; in the experiment on DU145, 6.19; in the experiment with Caco2 it was 6.46; in the experiment on B16F10 it was 6.29.
Turning to `Cc1nsc(Nc2cnc(C(F)(F)F)cn2)c1C(=O)Nc1ccc(F)c(F)c1` [Example 81, N-(3,4-Difluorophenyl)-3-methyl-5-{[5-(trifluoromethyl)pyrazin-2-yl]amino}-1,2-thiazole-4-carboxamide], the pIC50 with NCI-H460 is 6.62; with HeLa-MaTu-ADR it was 6.64; with DU145, 6.17; with Caco2, 6.68; in the experiment with B16F10, 6.70.
In the case of `Cc1nsc(Nc2cncc(C(F)(F)F)n2)c1C(=O)Nc1ccc(F)c(F)c1` [Example 82, N-(3,4-Difluorophenyl)-3-methyl-5-{[6-(trifluoromethyl)pyrazin-2-yl]amino}-1,2-thiazole-4-carboxamide], the pIC50 with NCI-H460 is 7.25; in the experiment on HeLa-MaTu-ADR, 6.89; with DU145, 6.57; in the experiment on Caco2, 6.77; in the experiment with B16F10 it was 6.85.
In the same order, the values of `Cc1nsc(Nc2ccc(C(F)(F)F)nn2)c1C(=O)Nc1ccc(F)c(F)c1` [Example 83, N-(3,4-Difluorophenyl)-3-methyl-5-{[6-(trifluoromethyl)pyridazin-3-yl]amino}-1,2-thiazole-4-carboxamide] are 6.59, 6.43, 6.13, 6.46 and 6.60.
Take `COc1ccc(NC(=O)c2c(C)nsc2Nc2cncc(C(F)(F)F)n2)cn1` [Example 84, N-(6-methoxypyridin-3-yl)-3-methyl-5-{[6-(trifluoromethyl)pyrazin-2-yl]amino}-1,2-thiazole-4-carboxamide]: the pIC50 in the experiment on NCI-H460 was 6.74; in the experiment on HeLa-MaTu-ADR, 6.48; in the experiment with DU145 it was 6.08; in the experiment on Caco2 it was 6.62; with B16F10, 6.54.
As to `COc1ccc(NC(=O)c2c(C)nsc2Nc2cnc(C(F)(F)F)cn2)cn1` [Example 85, N-(6-methoxypyridin-3-yl)-3-methyl-5-{[5-(trifluoromethyl)pyrazin-2-yl]amino}-1,2-thiazole-4-carboxamide], the pIC50 is 6.38 in the experiment on NCI-H460; 6.44 with HeLa-MaTu-ADR; 6.15 with DU145; 6.43 with Caco2; 6.30 in the experiment on B16F10.
For `CCc1ccccc1NC(=O)c1c(C)nsc1Nc1cnc2cc(Cl)ccc2n1` [Example 86, 5-[(6-Chloroquinoxalin-2-yl)amino]-N-(2-ethylphenyl)-3-methyl-1,2-thiazole-4-carboxamide], in that order: 6.77, 6.59, 6.29, 6.51 and 6.49.
